Results on twelve molecules are retold here after PubChem BioAssay (NCI).

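These data come from cells grown in 96-well plates and exposed to compound for 48 hours at five concentrations. At the GI50, growth is halved. At the TGI there is no net growth.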 A value given as a limit tells only on which side of the number the result lay.

What all share (test): NCI tumour cell line growth inhibition, 48 h
For test [1], the system named is ACHN renal.
Test [2] concerns PC-3 prostate.
Test [3] relates to SK-MEL-2 melanoma.
For test [4], the system named is SK-MEL-28 melanoma.
Test [5] deals with NCI/ADR-RES ovarian.
Test [6] relates to IGROV1 ovarian.
Test [7] relates to M14 melanoma.
For test [8], the system named is HOP-92 NSCLC.
The test system of test [9] is SNB-75 CNS.

For the molecule `O=C1c2cccc([N+](=O)[O-])c2C(=O)N1c1ncn[nH]1`, the TGI in test [1], in test [2], in test [3], in [4], in test [5] and in [6] was more than 100 µM in each case. Further, the TGI in test [7] is more than 100 µM; in test [8], 52.6 µM; in [9], 64.6 µM.

Turning to `O=S(=O)(NC1=NCCN1C(=S)SN1CCn2c1nsc2=S)c1cccc(Cl)c1`, the GI50 in [1] is 13.8 µM; in test [2], 15.4 µM; in test [3], 26 µM; in [4], 21.4 µM; in test [5] it was 21.4 µM; in test [6] it was 12.4 µM. Moreover, the GI50 was 15.8 µM in test [7], 25.4 µM in test [8] and 29.2 µM in test [9]. For the same molecule, the TGI in [1] worked out at 30.6 µM; in test [2], 47.2 µM; in [3], 98.9 µM; in [4], 39.7 µM; in [5], 69.3 µM; in test [6], 36.8 µM. Moreover, the figures for the TGI in [7], in test [8] and in [9] were 33.2 µM, 71.3 µM and 55.6 µM, respectively.

As to `CS(=O)(=O)CCNCc1ccc(-c2ccc3ncnc(Nc4ccc(OCc5ccccc5)cc4)c3c2)o1`, the GI50 in test [1] was 1.28 µM; in test [2], 7.23 µM; in test [3] it was 5.5 µM; in test [4], 4.04 µM; in test [5] it was 6.71 µM; in test [6] it was 3.45 µM. Besides, the GI50 in [7] is 4.89 µM; in test [8] it was 3.13 µM; in test [9] it was 5.71 µM. For the same molecule, the TGI was more than 25 µM in test [1]; more than 23.7 µM in [2]; 10.7 µM in test [3]; 7.83 µM in test [4]; more than 25 µM in test [5]; more than 18.8 µM in test [6]. Further, the TGI in test [7] is 9.74 µM; in test [8], 14.1 µM; in test [9] it was more than 25 µM.

As to `CCOC1Oc2ccc(C)cc2C(=O)/C1=C\Nc1ccc(C(N)=O)cc1` (configuration not stated), the GI50 in test [1] was 14.9 µM; in [2], 32.9 µM; in [3] it was 34.4 µM; in [4], 51.7 µM; in [5], 17.7 µM; in test [6], 18.9 µM. In addition, the GI50 is 17.2 µM in test [7], 79.9 µM in [8] and 44.5 µM in test [9]. Besides, the TGI in [1] was 40.6 µM; in test [2] it was more than 100 µM; in [3] it was more than 100 µM; in [4], more than 100 µM; in test [5], 44.7 µM; in test [6], 72.5 µM. Also, the TGI in [7] is 33.4 µM; in test [8], more than 100 µM; in test [9], more than 100 µM.

For the molecule `O=C(CC1C(=O)NN(c2ccc(Br)cc2)C1=O)c1cc(O)ccc1O` (configuration not stated), the GI50 is 14.8 µM in test [1]; 24.1 µM in test [2]; 36.5 µM in [3]; 28 µM in test [4]; 19.6 µM in test [5]; 40 µM in [6]. The GI50 in [7] is 31.2 µM; in [8], 11.6 µM; in [9], 24.8 µM. Besides, the TGI in [1] was 49.4 µM; in test [2], more than 50 µM; in test [3], more than 50 µM; in test [4] it was more than 50 µM; in test [5] it was more than 50 µM; in [6], more than 50 µM. Also, the TGI in test [7], in test [8] and in [9] was more than 50 µM in each case.

For `O=C(CCc1nnc2sc(-c3ccc(Cl)cc3Cl)nn12)c1nc2ccccc2[nH]1`, the GI50 is 0.337 µM in test [1]; 0.865 µM in test [2]; 1.78 µM in test [3]; 0.452 µM in test [4]; 1.42 µM in test [5]; 0.953 µM in [6]. The GI50 is 0.282 µM in [7], 0.391 µM in [8] and 1.48 µM in test [9]. The TGI in test [1] was found to be 1.29 µM; in [2] it was 3.62 µM; in [3] it was 5.4 µM; in [4], 1.68 µM; in test [5], 6.15 µM; in test [6] it was 6.35 µM. Also, the TGI in [7] was 1.03 µM; in test [8], 1.86 µM; in test [9], 3.53 µM.

On to `COc1ccc(-c2nc(-c3nc4ccc(Cl)cc4[nH]3)c3ccccn23)cc1`, for which the GI50 in test [1] is 1.86 µM; in test [2], 2.13 µM; in [3] it was 2.71 µM; in test [4] it was 2.14 µM; in [5], 2.78 µM; in test [6], 4.95 µM. The GI50 in test [7] was 4.24 µM; in test [8], 2.19 µM; in test [9] it was 1.87 µM. Further, the TGI in [1] was determined as 3.75 µM; in test [2] it was 5.63 µM; in test [3], 8.76 µM; in [4], 5.34 µM; in test [5], 9.2 µM; in test [6], 22.9 µM. In addition, the TGI in [7] was 18.4 µM; in test [8] it was 6.09 µM; in [9] it was 3.94 µM.

As to `CC/C=C\C[C@@H](O)C/C=C1/C(=O)C=C[C@H]1C/C=C\CCCC(=O)OC`, the GI50 was 1.97 µM in [1]; 3.2 µM in test [2]; 6.99 µM in test [3]; 2.1 µM in test [4]; 3.38 µM in [5]; 3.31 µM in [6]. Besides, the results for the GI50 in test [7], in [8] and in [9] were 2.39 µM, 4.54 µM and 6.17 µM, respectively. Also, the TGI in test [1] came to 4.02 µM; in test [2] it was 10.8 µM; in test [3] it was 21.6 µM; in [4], 5.34 µM; in [5] it was 19.7 µM; in test [6], 12.6 µM. Also, the TGI in test [7] was 8.38 µM; in [8], 15.2 µM; in [9], 19.6 µM.

As for `CCCn1c(=S)sc2c1nc(C)n1c(Nc3ccccc3)nnc21`, the GI50 is 5.05 µM in test [1]; 4.04 µM in test [2]; 4.64 µM in test [3]; 5.71 µM in test [4]; 3.53 µM in [5]; 25.8 µM in [6]. The GI50 in [7] was 4.72 µM; in test [8] it was 2.31 µM; in [9], 12.9 µM. Further, the TGI in test [1] is more than 100 µM; in [2], 34.5 µM; in [3] it was 53.1 µM; in test [4], 38.6 µM; in [5] it was 41.9 µM; in test [6] it was more than 100 µM. Moreover, the values for the TGI in test [7], in test [8] and in test [9] were 44 µM, 20.2 µM and 71 µM, respectively.

Take `CC[C@@]1(c2ccccc2)C2=C(CC(C)(C)CC2=O)Nc2[nH]ncc21`: the GI50 in test [1], in test [2], in [3], in test [4], in test [5] and in [6] was more than 100 µM in each case. In addition, the GI50 was more than 100 µM in test [7], more than 100 µM in test [8] and 14.9 µM in test [9]. Moreover, the TGI in test [1], in [2], in test [3], in test [4], in [5] and in test [6] was more than 100 µM each time. The TGI in [7], in [8] and in test [9] was more than 100 µM each time.

As for `COc1cc2cc(Oc3ccc(NC(=O)Nc4ccc(Cl)c(C(F)(F)F)c4)cc3)c(C)nc2cc1OCCN1CCOCC1`, the GI50 in test [1] was 2.03 µM; in test [2] it was 1.36 µM; in test [3] it was 1.65 µM; in [4], 1.55 µM; in test [5] it was 2.34 µM; in test [6], 2.43 µM. Also, the results for the GI50 in [7], in test [8] and in test [9] were 1.52 µM, 1.66 µM and 1.65 µM, respectively. Also, the TGI in test [1] amounted to 11.6 µM; in [2], 6 µM; in test [3] it was 4.06 µM; in test [4], 3.12 µM; in test [5] it was 12.6 µM; in test [6], 23.2 µM. The TGI is 3.45 µM in [7], 6.16 µM in test [8] and 7.05 µM in test [9].

Take `COC(=O)Nc1nc2ccc(Oc3ccc(NC(=O)Nc4cc(C(F)(F)F)ccc4F)cc3)cc2s1`: the GI50 in test [1] is more than 25 µM; in test [2], 11.5 µM; in test [3] it was more than 5.02 µM; in [4], 13.9 µM; in test [5] it was 14.5 µM; in test [6], more than 25 µM. Further, the GI50 in test [7] is 2.83 µM; in test [8], 0.288 µM; in [9] it was 6.76 µM. Besides, the TGI in test [1], in [2], in test [3], in test [4], in test [5] and in [6] was more than 25 µM in each case. For the same molecule, the TGI was more than 25 µM in test [7], more than 25 µM in test [8] and more than 23.8 µM in test [9].
